Laboratory results taken from ChEMBL document CHEMBL4270610, “Pyrrolopyrimidines: An update on recent advancements in their medicinal attributes” (Eur J Med Chem, 2018).
Values after ≈ are worked out from the molar mass of the structure shown.

What was measured:
[1] = target: T1, Tyrosine-protein kinase Lyn (Homo sapiens, UniProt P07948); test: Inhibition of Lyn (unknown origin) using Src-family kinase bisamide rhodamine 110 peptide substrate after 1 hr by fluorescence assay
Target sequence in this assay (P07948 whole entry): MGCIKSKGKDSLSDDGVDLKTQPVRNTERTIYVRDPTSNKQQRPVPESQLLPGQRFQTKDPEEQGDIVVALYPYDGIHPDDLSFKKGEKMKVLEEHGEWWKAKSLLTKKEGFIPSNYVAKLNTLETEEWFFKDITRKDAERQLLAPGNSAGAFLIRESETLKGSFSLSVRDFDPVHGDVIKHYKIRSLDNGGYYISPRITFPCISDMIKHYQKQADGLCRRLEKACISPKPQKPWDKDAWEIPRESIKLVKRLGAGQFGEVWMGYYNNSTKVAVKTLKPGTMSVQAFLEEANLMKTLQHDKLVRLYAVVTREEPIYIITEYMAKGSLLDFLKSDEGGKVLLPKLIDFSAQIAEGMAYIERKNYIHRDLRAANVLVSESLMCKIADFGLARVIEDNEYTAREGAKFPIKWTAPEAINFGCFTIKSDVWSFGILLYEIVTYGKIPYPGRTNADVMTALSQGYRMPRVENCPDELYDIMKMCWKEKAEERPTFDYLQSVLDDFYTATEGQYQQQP

[2] = tested on: unidentified influenza virus; test: Antiviral activity against Influenza virus H5N1; assay type: functional
Newcastle disease virus = test: Antiviral activity against Newcastle disease virus; assay type: functional; conditions: avian paramyxovirus 1
HL-60 = test: Antiproliferative activity against human HL60 cells; assay type: functional, cell-based
Jurkat E6.1 = test: Antiproliferative activity against human Jurkat E6-1 cells; assay type: functional, cell-based
Rattus norvegicus [3] = test: Inhibition of LPS-induced TNFalpha level in Sprague-Dawley rat serum at 25 mg/kg, po pretreated for 1 hr followed by LPS treatment measured after 90 mins by ELISA relative to control; assay type: functional
[4] = target: Proto-oncogene tyrosine-protein kinase Src (Homo sapiens) (UniProt P12931); test: Inhibition of Src (unknown origin) at 0.1 mM using Src-family kinase bisamide rhodamine 110 peptide substrate after 1 hr by fluorescence assay relative to control
[5] = target: T2, Tyrosine-protein kinase Fyn (Homo sapiens, UniProt P06241); test: Inhibition of Fyn (unknown origin) at 0.1 mM using Src-family kinase bisamide rhodamine 110 peptide substrate after 1 hr by fluorescence assay relative to control
Target sequence in this assay (P06241 2-537 limits assumed): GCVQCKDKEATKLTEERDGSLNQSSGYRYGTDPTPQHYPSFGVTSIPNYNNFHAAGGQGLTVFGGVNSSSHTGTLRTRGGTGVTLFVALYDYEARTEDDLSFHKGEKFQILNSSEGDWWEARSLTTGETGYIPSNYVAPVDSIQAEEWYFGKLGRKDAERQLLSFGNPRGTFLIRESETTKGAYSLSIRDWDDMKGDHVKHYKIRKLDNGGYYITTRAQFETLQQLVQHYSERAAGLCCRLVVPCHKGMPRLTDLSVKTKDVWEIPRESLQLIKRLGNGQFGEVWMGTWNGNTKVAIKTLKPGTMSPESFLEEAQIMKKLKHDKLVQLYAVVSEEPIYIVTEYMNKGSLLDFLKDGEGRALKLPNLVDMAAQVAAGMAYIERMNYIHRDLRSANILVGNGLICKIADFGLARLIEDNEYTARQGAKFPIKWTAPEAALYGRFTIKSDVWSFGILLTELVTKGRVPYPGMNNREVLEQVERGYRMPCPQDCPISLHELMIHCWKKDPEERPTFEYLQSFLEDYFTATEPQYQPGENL

[6] = target: T1, Tyrosine-protein kinase Lyn; test: Inhibition of Lyn (unknown origin) at 0.1 mM using Src-family kinase bisamide rhodamine 110 peptide substrate after 1 hr by fluorescence assay relative to control
Target sequence in this assay (P07948 2-512 limits assumed): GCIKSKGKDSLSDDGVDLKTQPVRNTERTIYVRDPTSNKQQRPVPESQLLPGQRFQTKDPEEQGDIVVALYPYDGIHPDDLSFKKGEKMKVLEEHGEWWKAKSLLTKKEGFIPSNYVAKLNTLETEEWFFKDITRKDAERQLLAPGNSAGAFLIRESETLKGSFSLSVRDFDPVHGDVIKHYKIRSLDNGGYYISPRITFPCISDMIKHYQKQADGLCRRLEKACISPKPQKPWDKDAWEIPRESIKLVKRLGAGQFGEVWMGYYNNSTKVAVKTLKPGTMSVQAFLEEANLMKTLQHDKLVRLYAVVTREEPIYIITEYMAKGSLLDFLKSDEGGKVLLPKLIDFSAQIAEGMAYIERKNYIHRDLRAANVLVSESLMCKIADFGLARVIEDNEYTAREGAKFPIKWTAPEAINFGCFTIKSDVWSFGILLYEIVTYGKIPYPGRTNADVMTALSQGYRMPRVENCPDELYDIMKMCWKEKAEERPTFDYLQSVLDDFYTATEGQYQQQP

Tetrahymena = test: Protozoacidal activity against Tetrahymena; assay type: functional
[7] = target: T2, Tyrosine-protein kinase Fyn; test: Inhibition of Fyn (unknown origin) using Src-family kinase bisamide rhodamine 110 peptide substrate after 1 hr by fluorescence assay
Target sequence in this assay (P06241 whole entry): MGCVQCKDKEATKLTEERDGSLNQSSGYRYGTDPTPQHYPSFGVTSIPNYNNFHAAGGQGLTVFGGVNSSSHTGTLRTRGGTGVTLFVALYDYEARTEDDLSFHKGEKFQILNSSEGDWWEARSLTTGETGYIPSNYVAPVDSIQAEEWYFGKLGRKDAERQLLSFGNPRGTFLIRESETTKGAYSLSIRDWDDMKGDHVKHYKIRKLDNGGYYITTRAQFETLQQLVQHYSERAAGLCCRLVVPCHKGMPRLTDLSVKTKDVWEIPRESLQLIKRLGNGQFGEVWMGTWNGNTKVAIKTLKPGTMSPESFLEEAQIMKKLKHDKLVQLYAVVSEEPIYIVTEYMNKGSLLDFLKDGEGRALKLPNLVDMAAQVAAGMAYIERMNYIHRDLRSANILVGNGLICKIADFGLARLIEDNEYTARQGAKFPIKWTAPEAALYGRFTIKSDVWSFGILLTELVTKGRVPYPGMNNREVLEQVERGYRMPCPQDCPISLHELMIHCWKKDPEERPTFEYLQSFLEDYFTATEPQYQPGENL

Rattus norvegicus [8] = test: Anti-hyperglycemic activity in Wistar albino rat sucrose loaded model assessed as reduction in blood glucose level at 4 mg/kg equiv of glimepiride pretreated orally for 30 mins followed by sucrose challenge and measured up to 120 mins post sucrose challenge relative to control; assay type: functional; design: scale not given: the % may be the effect or the level left
Rattus norvegicus [9] = test: Anti-hyperglycemic activity in streptozotocin-induced Wistar albino rat diabetic model assessed as reduction in blood glucose level at 4 mg/kg equiv of glimepiride treated orally measured up to 6 hrs post dose by glucometric method relative to control; assay type: functional; design: scale not given: the % may be the effect or the level left
Escherichia coli = test: Antibacterial activity against Escherichia coli; assay type: functional
Salmonella typhimurium = test: Antibacterial activity against Salmonella typhimurium; assay type: functional, Salmonella enterica subsp. enterica serovar Typhimurium; conditions: Salmonella enterica

Chain of Proto-oncogene tyrosine-protein kinase Src (Homo sapiens) (P12931 2-536 limits assumed): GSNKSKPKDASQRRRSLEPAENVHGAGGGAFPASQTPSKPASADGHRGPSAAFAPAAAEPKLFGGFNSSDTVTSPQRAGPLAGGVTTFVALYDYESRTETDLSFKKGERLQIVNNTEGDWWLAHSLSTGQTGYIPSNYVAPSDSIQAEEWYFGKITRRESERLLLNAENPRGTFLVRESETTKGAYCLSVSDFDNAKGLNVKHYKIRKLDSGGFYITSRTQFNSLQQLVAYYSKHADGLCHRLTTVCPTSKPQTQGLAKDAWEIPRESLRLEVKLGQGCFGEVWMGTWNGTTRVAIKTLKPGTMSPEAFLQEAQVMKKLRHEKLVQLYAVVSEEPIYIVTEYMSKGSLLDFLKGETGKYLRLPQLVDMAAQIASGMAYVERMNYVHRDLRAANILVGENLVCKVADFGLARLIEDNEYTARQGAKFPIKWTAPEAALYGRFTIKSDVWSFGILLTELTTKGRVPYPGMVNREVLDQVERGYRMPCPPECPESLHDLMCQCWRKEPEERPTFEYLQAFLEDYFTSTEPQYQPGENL

Structure (SMILES): COc1cccc(-c2cn(-c3ccc(CCN4CCC(O)CC4)cc3)c3ncnc(N)c23)c1
- IC50 [1]: 0.4 nM

Structure (SMILES): O=c1c2cc(-c3ccc(Br)cc3)n(-c3ccccc3)c2ncn1CCOCCO
- MIC [2]: 4.5 µg/mL (≈ 9.9 µM)

Structure (SMILES): NC(=O)c1ncn([C@@H]2O[C@H](CO)[C@@H](O)[C@H]2O)n1 [RIBAVIRIN]
- MIC (Newcastle disease virus): 3 µg/mL (≈ 12.3 µM)
- MIC [2]: 6 µg/mL (≈ 24.6 µM)

Structure (SMILES): O=c1c2cc(-c3ccccc3)n(-c3ccccc3)c2ncn1CCOCCO
- MIC [2]: 3.8 µg/mL (≈ 10.1 µM)

Structure (SMILES): CCCCCc1ccc(-c2cc3cn([C@@H]4O[C@H](CO)[C@@H](O)[C@@H]4O)c(=O)nc3[nH]2)cc1
- IC50 (HL-60): 68000 nM
- IC50 (Jurkat E6.1): 61000 nM

Structure (SMILES): CCOc1ccc(NC(=O)Cn2cnc3c(cc(-c4ccccc4)n3-c3ccncc3)c2=O)cc1
- inhibition in vivo at 25 mg/kg (Rattus norvegicus [3]): 96%

Structure (SMILES): C[C@@H]1C[C@H]2[C@@H]3CCC4=CC(=O)C=C[C@]4(C)[C@@]3(F)[C@@H](O)C[C@]2(C)[C@@]1(O)C(=O)CO [DEXAMETHASONE]
- inhibition in vivo at 25 mg/kg (Rattus norvegicus [3]): 91%

Structure (SMILES): Nc1nc2[nH]cc(CNC(=O)COc3ccc(Cl)cc3)c2c(=O)[nH]1
- inhibition [4]: 60%
- inhibition [5]: 36%
- inhibition [6]: 28%

Structure (SMILES): C[C@H](Nc1ncnc2[nH]c(-c3ccc(O)cc3)cc12)c1ccc(Br)cc1
- MIC (Tetrahymena): 8 µg/mL (≈ 19.5 µM)

Structure (SMILES): C[C@H](Nc1ncnc2[nH]c(-c3ccc(O)cc3)cc12)c1ccccc1
- MIC (Tetrahymena): 8 µg/mL (≈ 24.2 µM)

Structure (SMILES): C[C@@H](Nc1ncnc2[nH]c(-c3ccc(O)cc3)cc12)c1cccc2ccccc12
- MIC (Tetrahymena): 32 µg/mL (≈ 84.1 µM)

Structure (SMILES): CN1CCN([C@H]2CC[C@H](n3cc(-c4ccc(Oc5ccccc5)cc4)c4c(N)ncnc43)CC2)CC1
- IC50 [7]: 0.3 nM

Structure (SMILES): O=c1c2cc(-c3ccc(Br)cc3)n(-c3ccccc3)c2ncn1CC(O)CO (centres undefined)
- MIC [2]: 4.1 µg/mL (≈ 9.31 µM)

Structure (SMILES): Nc1ccn([C@@H]2O[C@H](CO)[C@@H](O)[C@@H]2O)c(=O)n1 [CYTARABINE]
- IC50 (HL-60): 185 nM
- IC50 (Jurkat E6.1): 18 nM

Structure (SMILES): Cc1nc(Cl)c2c(-c3ccccc3)c(-c3ccccc3)n(-c3c(C)n(C)n(-c4ccccc4)c3=O)c2n1
- Activity (Rattus norvegicus [8]): 13%
- Activity (Rattus norvegicus [9]): 11.2%

Structure (SMILES): COc1ccc(-c2cc3c(N[C@H](C)c4cccc5ccccc45)ncnc3[nH]2)cc1
- MIC (Tetrahymena): 32 µg/mL (≈ 81.1 µM)

Structure (SMILES): Cc1ccc(C(=O)NCc2c[nH]c3nc(N)[nH]c(=O)c23)s1
- inhibition [4]: 71%
- inhibition [5]: 41%
- inhibition [6]: 40%

Structure (SMILES): O=c1[nH]cnc2c1cc(-c1ccc(Cl)cc1)n2-c1ccccc1
- MIC (Escherichia coli): 3.2 µg/mL (≈ 9.95 µM)
- MIC (Salmonella typhimurium): 3.2 µg/mL (≈ 9.95 µM)

Structure (SMILES): COc1ccc(CCCC(=O)NCc2c[nH]c3nc(N)[nH]c(=O)c23)cc1OC
- inhibition [4]: 54%
- inhibition [5]: 38%
- inhibition [6]: 32%

Structure (SMILES): O=c1c2cc(-c3ccccc3)n(-c3ccccc3)c2ncn1CC(O)CO (centres undefined)
- MIC [2]: 3.6 µg/mL (≈ 9.96 µM)

Structure (SMILES): O=c1[nH]cnc2c1cc(-c1ccccc1)n2-c1ccccc1
- MIC (Newcastle disease virus): 2.7 µg/mL (≈ 9.4 µM)
- MIC (Escherichia coli): 2.8 µg/mL (≈ 9.75 µM)
- MIC (Salmonella typhimurium): 2.8 µg/mL (≈ 9.75 µM)
